Data as given in patent publication US4725581A, “New peptide compounds having a lactone or cycloamide structure” (ADIR et Compagnie, priority 1985, dated 1988).

Columns and labels:
Format in all cases: in vivo
cerebral AMPc = assay: Stimulation of the synthesis of cerebral AMPc; conditions: mice OF1/IFFA-Credo, 10 mg/kg intraperitoneally, five minutes after injection
Protocol: The compounds to be tested are administered intraperitoneally at a dose of 10 mg/kg to mice of strain OF1 /IFFA-Credo.
Five minutes after injection, the animals are sacrificed by freezing and the AMPc present in the cerebral structures is measured by radio immunology according to the Amersham method (specific binding protein).

rats = assay: Increase in the latency of the onset of sleep induced by Pentobarbital; conditions: 10 mg/kg i.p. before pentobarbital 40 mg/kg i.p.
Protocol: Pentobarbital, injected in rats at a dose of 40 mg/kg i.p., induces the onset of sleep.

mice = assay: Potentialisation of the toxicity of Yohimbine; conditions: Yohimbine alone 35 mg/kg i.p.
Protocol: Yohimbine, injected to mice at a dose of 35 mg/kg i.p. causes the death of 10% to 30% treated animals. The compounds of the invention administered at a dose of 10 mg/kg i.p. 15 minutes before the injection of Yohimbine increase the rate of mortality (+80% with compounds of examples 5 and 7).

Compound	increase of the intracerebral content of AMPc (cerebral AMPc) [%]	effect on the onset of sleep induced by pentobarbital (in words) (rats)	death of treated animals (mice)
NC(=O)[C@@H]1CCCN1C(=O)[C@H](Cc1c[nH]cn1)NC(=O)[C@@H]1CCC(=O)N1 [TRH, pyroglutamylhistidyl-prolinamide]	46	inactive	
COC(=O)[C@@H]1[C@H]2C[C@H]3c4[nH]c5ccccc5c4CCN3C[C@@H]2CC[C@@H]1O [Yohimbine]			10% to 30
